Test results reported in patent US6344351B2, “(R)-transaminase from arthrobacter” (Kaneka Corporation, priority 1995, dated 2002).

Tests used:
[1] = system: (R)-form-specific transaminase of Arthrobacter sp. KNK168; experiment: Reactivity of purified enzyme to carbonyl compounds, (R)-1-phenylethylamine as amino donor; assay type: biochemical; conditions: for Relative Activity (%) of carbonyl compounds: purified enzyme, 25 mM carbonyl compound, 25 mM (R)-1-phenylethylamine, pH 8.5, 30° C., 1 to 3 hours, pyruvic acid = 100; for reactivity of carbonyl compound: (R)-1-phenylethylamine as amino donor
Method: Using the purified enzyme obtained in Example 9, reactivities to various carbonyl compounds using (R)-1-phenylethylamine as an amino donor were evaluated. 50 μl of a solution of the purified enzyme was added to 200 μl of a substrate solution (0.1 M Tris-HCl buffer (pH 8.5), 25 mM (R)-1-phenylethylamine, 0.1 mM pyridoxal phosphate, and 25 mM various carbonyl compounds), and the components were reacted at 30° C. for 1 to 3 hours. The reaction tube was transferred into boiling water to stop the reaction, and, thereafter, the reaction mixture was diluted five-folds with methanol. This diluted solution was analyzed by high-performance liquid chromatography using fine pack C18-5 column and using methanol/water (20:80) as an eluent solution to quantitatively analyze acetophenone formed by the reaction.

[2] = system: Arthrobacter species KNK168 strain; experiment: Amino donor test; (R)-DMA formation by cultured cells; assay type: cell-based
Method: The cultured cells were harvested by centrifugation, and the harvested cells were suspended in a reaction mixture (pH 8.5) containing 1% of 1-(3,4-dimethoxyphenyl)-2-propanone, […] of Triton X-100, and 1% of an amino donor shown in Table 2. The components were reacted at 35° C. for 20 hours.

[3] = target: T1, ω-amino acid transaminase derived from Pseudomonas sp. F-1 (Pseudomonas putida, UniProt P28269); parameters: concentration or dose not given beside the values; conditions: purified enzyme, literature data; pyruvic acid as amino acceptor; cited from earlier work
T1 sequence (P28269 1-449): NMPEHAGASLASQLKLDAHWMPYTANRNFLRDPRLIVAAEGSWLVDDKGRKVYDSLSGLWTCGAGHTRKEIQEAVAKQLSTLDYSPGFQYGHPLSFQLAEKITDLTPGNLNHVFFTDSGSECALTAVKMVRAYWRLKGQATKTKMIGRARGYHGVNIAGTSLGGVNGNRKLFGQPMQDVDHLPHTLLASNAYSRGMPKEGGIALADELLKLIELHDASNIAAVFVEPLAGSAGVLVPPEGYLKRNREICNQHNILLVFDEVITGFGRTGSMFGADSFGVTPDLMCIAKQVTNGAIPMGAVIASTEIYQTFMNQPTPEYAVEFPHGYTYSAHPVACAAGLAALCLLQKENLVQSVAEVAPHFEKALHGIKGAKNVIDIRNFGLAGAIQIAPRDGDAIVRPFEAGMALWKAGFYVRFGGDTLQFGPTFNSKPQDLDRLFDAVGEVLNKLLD

[4] = system: (R)-form-specific transaminase of Arthrobacter sp. KNK168; experiment: Reactivity of purified transaminase of present invention to amino compounds, pyruvic acid as amino acceptor; assay type: biochemical; parameters: Transaminase of Present Invention (Relative Activity: %), Substrate Specificity: concentration or dose not given beside the values; conditions: for Transaminase of Present Invention (Relative Activity: %), Substrate Specificity / Relative Activity (%) of amino compounds: purified enzyme; for Transaminase of Present Invention (Relative Activity: %), Substrate Specificity / reactivity of amino compound: pyruvic acid as amino acceptor; for Relative Activity (%) of amino compounds: 40 mM amino compound in substrate solution, 40 mM pyruvic acid, pH 8.3, 30° C., 1 hour, (R)-1-phenylethylamine = 100
From the text: The differences with the ω-amino acid transaminase derived from Pseudomonas sp. F-1 (Agric. Biol. Chem., 42, 2363-2367 (1978), Agric. Biol. Chem., 43, 1043-1048 (1979), J. Biol. Chem., 258, 2260-2265 (1983)) which have been well studied among the ω-amino acid transaminases, and with the benzylamine transaminase of Okada et al. (Japanese Patent Laid-Open No. Hei 6-178685) are summarized and shown in Table 2. In a case of the transaminase action in the present invention, the data of the purified enzyme are used, and in cases of those by other two enzymes, the data of the purified enzymes which are disclosed in each of the literature publication and patent publication are used. Pyruvic acid is used as an amino acceptor in all cases.
Using the purified enzyme obtained in Example 9, reactivities to various amino compounds when using pyruvic acid as an amino acceptor were evaluated. 150 μl of a solution of the purified enzyme diluted ten-folds was added to 150 μl of a substrate solution (0.1 M potassium phosphate buffer (pH 8.3), 40 mM pyruvic acid, 0.1 mM pyridoxal phosphate, and 40 mM various amino compounds). The components were reacted at 30° C. for 1 hour. The reaction tube was transferred into boiling water to stop the reaction, and, thereafter, a part of the reaction mixture was diluted five-folds. Ten μl of 0.1 M boric acid buffer (pH 8.0) and 20 μl of an ethanol solution of 80 mM of 4-fluoro-7-nitro-2,1,3-benzoxadiazole (NBD-F) were added to 10 μl of the above-mentioned diluted reaction mixture. The components were reacted at 60° C. for 1 minute, and, thereafter, the reaction mixture was ice-cooled, and 460 μl of 5 mM HCl was added thereto. This reaction mixture was analyzed by high-performance liquid chromatography using fine pack C18-5 column and using a 0.1 M potassium phosphate buffer (pH 6.5) and CH3CN (90:10) as an eluent solution to detect formation of alanine-NBD using excitation wavelength of 470 nm and using detection wave of […]. The results thereof are shown in Table 8 in terms of relative activity in the case of using […] as a substrate.

[5] = system: transaminase (intracellular enzyme) of Arthrobacter sp. KNK168; experiment: Activity of the transaminase (intracellular enzyme) against typical substrates of ω-aminotransferases; assay type: biochemical
[6] = system: Arthrobacter species KNK168 strain; experiment: Surfactants and fatty acids as reaction additives; (R)-DMA formation by cells; assay type: cell-based
Method: The cells obtained by culturing the Arthrobacter species KNK168 strain in the R medium were suspended in a reaction mixture containing 2% of 1-(3,4-dimethoxyphenyl)-2-propanone and 4% of (RS)-1-phenylethylamine. The surfactants and fatty acids shown in Table 6 were added thereto, and the mixture was reacted at 30° C. at a pH of 8.5 for 20 hours.

[7] = 1% amino donor, 1% 1-(3,4-dimethoxyphenyl)-2-propanone, Triton X-100, pH 8.5, 35° C., 20 hours
[8] = amino acceptor 2-ketoglutaric acid, (R)-1-phenylethylamine/pyruvic acid control = 100
[9] = amino acceptor pyruvic acid, (R)-1-phenylethylamine control = 100
[10] = additive 0.1%, 2% ketone, 4% (RS)-1-phenylethylamine, 30° C., pH 8.5, 20 hours, no addition 28.1
[11] = additive 0.5%, otherwise as 0.1%

2-Decane
Relative Activity (%) of carbonyl compounds [1]: 3%

CC(CN)c1ccccc1 (racemic) [(RS)-1-Amino-2-phenylpropane]
(R)-DMA Formed (%), amino group donor ([2]; pH 8.5): 1.8%

CC(N)c1cccc2ccccc12 (racemic) [(RS)-1-Naphthylethylamine]
(R)-DMA Formed (%), amino group donor [2, 7]: 34.2%

CC(N)c1ccccc1 (racemic) [(RS)-1-phenylmethylamine]
(R)-DMA Formed (%), amino group donor [2, 7]: 3.1%

CC(N)CO (racemic) [(RS)-2-Amino-1-propanol]
(R)-DMA Formed (%), amino group donor [2, 7]: 9.6%

CCCC(C)N (racemic) [(RS)-2-Aminopentane]
function as amino donor [2]: functioned as amino donors

CC(N)CC(=O)O (racemic) [DL-3-Aminobutyric acid]
ω-Amino Acid Transaminase (Relative Activity: %), Substrate Specificity [3]: 96% | action of the transaminase derived from Arthrobacter on the substrate [4]: does not act | Transaminase of Present Invention (Relative Activity: %), Substrate Specificity [4]: 0%

NC(=O)CC(N)C(=O)O (racemic) [DL-Asparagine]
Relative Activity (%) as amino donor [5, 8]: 0%

NC(=O)CCC(N)C(=O)O (racemic) [DL-Glutamine]
Relative Activity (%) as amino donor [5, 8]: 0%

NCCCCC(N)C(=O)O (racemic) [DL-Lysine]
Relative Activity (%) as amino donor [5, 8]: 0%

COc1ccc(CC(C)=O)cc1OC [1-(3,4-Dimethoxyphenyl)-2-propanone]
Relative Activity (%) of carbonyl compounds [1]: 7%

COCC(C)=O [1-Methoxy-2-propanone]
Relative Activity (%) of carbonyl compounds [1]: 16%

CCCCCCC(C)N (stereo not shown) [1-Methylheptylamine]
Relative Activity (%) of amino compounds [4]: 47%

CCC(C)N (stereo not shown) [1-Methylpropylamine]
Relative Activity (%) of amino compounds [4]: 1.2%

CCC(=O)Cc1ccccc1 [1-Phenyl-2-butanone]
Relative Activity (%) of carbonyl compounds [1]: 1%

O=C1CCCc2ccccc21 [1-Tetralone]
Relative Activity (%) of carbonyl compounds [1]: 1%

CC(=O)c1ccco1 [2-Acetylfuran]
Relative Activity (%) of carbonyl compounds [1]: 2%

CC(=O)c1cnccn1 [2-Acetylpyrazine]
Relative Activity (%) of carbonyl compounds [1]: 17%

CC(=O)c1ccccn1 [2-Acetylpyridine]
Relative Activity (%) of carbonyl compounds [1]: 19%

CC(=O)c1nccs1 [2-Acetylthiazole]
Relative Activity (%) of carbonyl compounds [1]: 10%

CC(=O)c1cccs1 [2-Acetylthiophene]
Relative Activity (%) of carbonyl compounds [1]: 1%

CCCCCC(C)N (stereo not shown) [2-Heptylamine]
Relative Activity (%) of amino compounds [4]: 37%

CCC(=O)C(=O)O [2-Ketobutyric acid]
Relative Activity (%) of carbonyl compounds [1]: 7%

CC(=O)Oc1cccnc1 [3-Acetoxypyridine]
Relative Activity (%) of carbonyl compounds [1]: 1%

CC(=O)c1cccnc1 [3-Acetylpyridine]
Relative Activity (%) of carbonyl compounds [1]: 8%

CC(N)CCc1ccccc1 (stereo not shown) [3-Aminophenylbutane]
Relative Activity (%) of amino compounds [4]: 84% | reactivity of amino compound [4]: favorable reactivities

COc1ccc(CCC(C)=O)cc1 [4-(4-Methoxyphenyl)-2-butanone]
Relative Activity (%) of carbonyl compounds [1]: 7%

CC(=O)c1ccncc1 [4-Acetylpyridine]
Relative Activity (%) of carbonyl compounds [1]: 27%

NCCCC(=O)O [4-Aminobutyric acid]
ω-Amino Acid Transaminase (Relative Activity: %), Substrate Specificity [3]: 40% | Relative Activity (%) as amino donor [5, 8]: 0% | action of the transaminase derived from Arthrobacter on the substrate [4]: does not act | Transaminase of Present Invention (Relative Activity: %), Substrate Specificity [4]: 0%

C[C@@H](N)c1ccccc1 [(R)-1-Phenylethylamine]
activity of the transferase to amino donor [5]: especially high activity | Relative Activity (%) as amino donor [5, 9]: 100% | Relative Activity (%) of amino compounds [4]: 100%

COc1ccc(C[C@@H](C)N)cc1OC [(R)-3,4-Dimethoxyaminopropane]
Relative Activity (%) of amino compounds [4]: 30%

N[C@H](CO)c1ccccc1 [(S)-2-Phenylglycinol]
Relative Activity (%) of amino compounds [4]: 180% | reactivity of amino compound [4]: favorable reactivities

CC(=O)CCc1ccccc1 [Benzyl acetone]
Relative Activity (%) of carbonyl compounds [1]: 3%

CCCCCCCCCCCCCCCC[N+](C)(C)C.[Br-] [Cetyl trimethyl ammonium bromide (CTAB), Cetyl trimethyl ammonium bromide]
(R)-DMA Formed (%), additive [6, 10]: 29.1%

CC(=O)C(C)=O [Diacetyl]
Relative Activity (%) of carbonyl compounds [1]: 10%

CCOC(=O)CC(C)=O [Ethyl acetoacetate]
Relative Activity (%) of carbonyl compounds [1]: 4%

CCOC(=O)CC(=O)c1ccccc1 [Ethyl benzoyl acetate]
Relative Activity (%) of carbonyl compounds [1]: 2%

CCOC(=O)C(C)=O [Ethyl pyruvate]
Relative Activity (%) of carbonyl compounds [1]: 27%

O=CC(=O)O [Glyoxylic acid]
Relative Activity (%) of carbonyl compounds [1]: 4%

N[C@H](CO)Cc1ccccc1 [L-Phenylalaninol]
Relative Activity (%) of amino compounds [4]: 0.8%

CCCCC/C=C\C/C=C\CCCCCCCC(=O)O [Linoleic Acid]
effect of additive on rate of reaction [6]: rate of reaction was increased | (R)-DMA Formed (%), additive ([6]; additive 2.9%): 45.1%

CCCCCCCC/C=C\CCCCCCCC(=O)O [Oleic Acid]
effect of additive on rate of reaction [6]: rate of reaction was increased | (R)-DMA Formed (%), additive ([6]; additive 2.9%): 44.9%

O=C(O)CC(=O)C(=O)O [Oxalacetic acid]
reactivity of carbonyl compound [1]: favorable reactivities | Relative Activity (%) of carbonyl compounds [1]: 87%

CC(=O)COc1ccccc1 [Phenoxy-2-propanone]
reactivity of carbonyl compound [1]: favorable reactivities | Relative Activity (%) of carbonyl compounds [1]: 83%

O=CCc1ccccc1 [Phenyl acetaldehyde]
Relative Activity (%) of carbonyl compounds [1]: 13%

CC(=O)C(=O)O [Pyruvic acid]
Relative Activity (%) of carbonyl compounds [1]: 100%

CCCCCCCCCCCCOS(=O)(=O)[O-].[Na+] [Sodium dodecyl sulfate]
effect of additive on rate of reaction [6]: rate of reaction was increased | (R)-DMA Formed (%), additive [6, 10]: 45.3% | (R)-DMA Formed (%), additive [6, 11]: 42.2% | (R)-DMA Formed (%), additive ([6]; additive 1.0%): 46.3% | (R)-DMA Formed (%), additive ([6]; additive 2.0%): 50.1% | (R)-DMA Formed (%), additive ([6]; additive 3.0%): 51.9% | (R)-DMA Formed (%), additive ([6]; additive 4.0%): 53.1%

NCCS(=O)(=O)O [Taurine]
Relative Activity (%) as amino donor [5, 8]: 0%

NCCC(N)C(=O)O (stereo not drawn) [α-2,4-Diaminobutyric acid]
Relative Activity (%) as amino donor [5, 9]: 0%

Triton X-100
(R)-DMA Formed (%), additive [6, 10]: 31.6% | (R)-DMA Formed (%), additive [6, 11]: 34.0%
